From US20070142396A1, “Treatment of pain with 1-[3-[4-(3-chlorophenyl)-1-piperazinyl]propyl]-5-methoxy-3,4-dihydro-2(1H)-quinolone or salt thereof” (Vela Pharmaceuticals, Inc., priority 2005, published 2007)

Experiments:
Format in all cases: in vivo, rat
[1] = system: rats with spinal nerve ligature (Chung neuropathic pain model); assay: Chung neuropathic pain model, tactile stimulation, second experiment (Example 3); details: acute; for effect on force inducing paw withdrawal: p.o.
Procedure: (§1) For tactile stimulation, the animal was placed under an inverted Plexiglas® box (17×11×14 cm) on a grid floor. The tip of an electronic Von Frey probe (Bioseb, Model 1610, Chaville, France) was applied with increasing pressure to the non-lesioned hindpaw or the lesioned hindpaw. The force required to induce paw withdrawal was automatically recorded. This procedure was carried out three times for each paw, and the mean force per paw was calculated to provide basic scores per animal.
(§2) The rats used in this experiment were the same rats used in Example 2. The materials and methods for this experiment were identical to those for Example 2 with the following exceptions: there was a 1-week washout between the two experiments, and the rats weighed 290-403 g at the start of this experiment. Prior to receiving drug treatment, all animals were submitted to tactile stimulation and assigned to treatment groups matched on the basis of their pain response. No account was taken of the treatment administered during the first experiment in assigning animals to treatment groups for this experiment.
(§3) All of the substances were administered orally. Morphine, dissolved in distilled water, was administered at 128 mg/kg dose p.o. Rats were tested 30 minutes, 1 hour, 2 hours, and 4 hours after administration of the substances.

[2] = system: rats with spinal nerve ligature (Chung neuropathic pain model); assay: Chung neuropathic pain model, cold allodynia on cold plate (Example 3); details: cold plate
Description: as §2, §3
Behavioral testing was carried out by measuring cold allodynia using an apparatus consisting of a cold plate maintained at 4±1° C. Rats were individually placed on the cold plate for a period of 5 minutes. The latency to the first paw withdrawal response and the number and total duration of withdrawal responses in 5 minutes were recorded for both the lesioned and the non-lesioned hindpaws.

[3] = system: rats with spinal nerve ligature (Chung neuropathic pain model); assay: Chung spinal nerve ligation (L5 and L6) neuropathic pain model, tactile stimulation with electronic Von Frey probe (Example 2); details: for Force Inducing Paw Withdrawal (g) Lesioned Paw / Force Inducing Paw Withdrawal (g) Non-lesioned Paw: hypersensitivity test after 8 days of twice daily administration
Description: The Chung neuropathic pain model (Kim and Chung, Pain, 50: 355-363, 1992), employs spinal nerve ligation (SNL) in a rat. Tight ligature of spinal nerves in a rat is associated with hyperalgesia, allodynia and spontaneous pain. Antihyperalgesics reduce these chronic signs of pain hypersensitivity. Thus, the Chung model permits testing of the antihyperalgesic activity of compounds in rats with neuropathic pain. The Chung model constitutes a model for peripheral neuropathic pain in humans, and was employed as follows.
Male Rj: Wistar (Han) rats, weighing 264-369 g at the beginning of the experiment, were obtained from Elevage Janvier, 53940 Le Genest-Saint-Isle, France. The rats were acclimatized to laboratory conditions for at least 5 days before the surgery phase of the experiment. The rats were housed in groups of five in macrolon cages (41×25×14 cm) on wood litter (Litalabo—SPPS, 95100 Argenteuil, France) with free access to food (code 113—SAFE, 91360 Epinay-sur-Orge, France) and water until tested. The animal houses were maintained under artificial lighting (12 hours) between 7:00 AM and 7:00 PM in a controlled ambient temperature of 21±3° C., and with relative humidity maintained at 40-70%.
Rats (264-369 g) were anesthetized with sodium pentobarbital (50 mg/kg i.p.), and an incision at the L4-S2 level was made to expose the left L5 and L6 spinal nerves. A ligature was tied tightly around each nerve. The wound was then sutured. The rats received an i.m. injection of 50,000 IU penicillin G and were allowed to recover. At least 2 weeks after the surgery, when the chronic state was fully installed, rats were submitted consecutively to tactile and thermal stimulation of both the non-lesioned and the lesioned hindpaws.
Doses of OPC-14523 were prepared in stock solutions (weight per volume, W/V), then in dilutions (volume per volume, V/V), as appropriate. The compound was dispersed in 0.5% tragacanth in distilled water. Morphine was dissolved in physiological saline as a reference standard for treatment of pain. The solutions for the test and reference substances were prepared fresh on the day of the experiment.
The vehicle, OPC-14523, and reference (morphine) compound were each administered in a volume of 5 ml/kg body weight. The doses of OPC-14523 were expressed in mg of substance per kg body weight and administered orally (p.o.). The vehicle control was also administered orally. The dose of morphine was expressed in mg of hydrochloride salt per kg body weight and administered i.p.
Each animal was tested at 30 minutes, 1 hour, 2 hours and 4 hours after the administration of a substance. Testing occurred in the morning.
To evaluate chronic drug administration and hypersensitivity induction, animals received a second substance treatment in the afternoon, after acute testing. The animals then received twice-daily substance treatment for an additional 9 days. To test for induction of hypersensitivity, the animals were tested, on the ninth day, 30 minutes before the first substance administration in the morning. The effect of chronic administration was tested on the tenth day 30 minutes, 1 hour, 2 hours and 4 hours after the administration of the substance in the morning.
as §1
Prior to receiving drug treatment, all animals were submitted to tactile stimulation and assigned to treatment groups, matched on the basis of their pain response. Each treatment group consisted of eight rats. The testing was performed blind. […]

**Q.** What does the source list for `COc1cccc2c1CCC(=O)N2CCCN1CCN(c2cccc(Cl)c2)CC1` [OPC-14523, 1-[3-[4-(3-chlorophenyl)-1-piperazinyl]propyl]-5-methoxy-3,4-dihydro-2(1H)-quinolone]?
**A.** change of force inducing paw withdrawal vs vehicle ([1]; 30 mg/kg p.o., lesioned paw, 30 minutes, p=0.10): +46%; change of force inducing paw withdrawal vs vehicle ([1]; 30 mg/kg p.o., lesioned paw, 2 hours, p=0.11): +79%; change of force inducing paw withdrawal vs vehicle ([1]; 100 mg/kg p.o., lesioned paw, 30 minutes, p=0.11): +76%; effect on force inducing paw withdrawal ([1]; lesioned paw): did not significantly affect; effect on force inducing paw withdrawal ([1]; non-lesioned paw): no clear effects; decrease of number of withdrawal responses ([2]; 30 mg/kg p.o., lesioned paw, 30 minutes, p<0.01): 50%; change of number of withdrawal responses ([2]; 30 mg/kg p.o., lesioned paw, 4 hours, p<0.05): −48%; change of total duration of withdrawal responses ([2]; 100 mg/kg p.o., 2 hours, p<0.05): −95%; change of latency to paw withdrawal ([2]; 100 mg/kg p.o., lesioned paw, 30 minutes, p<0.01): +140%; decrease of number of withdrawal responses ([2]; 100 mg/kg p.o., lesioned paw, 30 minutes, p<0.05): 64%; change of latency to paw withdrawal ([2]; 100 mg/kg p.o., lesioned paw, 1 hour, p=0.24): +183%; change of force inducing paw withdrawal vs vehicle ([3]; acute, 100 mg/kg p.o., lesioned paw, 1 hour): 107%; effect on force inducing paw withdrawal ([3]; acute, 100 mg/kg p.o., lesioned paw, 2 hours): tended to increase; change of force inducing paw withdrawal vs vehicle ([3]; acute, 100 mg/kg p.o., non-lesioned paw, 4 hours, p<0.01): −27%; effect on force inducing paw withdrawal ([3]; acute, p.o., other doses or time points): no significant effects; effect on force inducing paw withdrawal ([3]; chronic, twice daily, after 10 days, p.o., lesioned or non-lesioned paw): did not have clear effects; Force Inducing Paw Withdrawal (g) Lesioned Paw ([3]; 10 mg/kg p.o.): 17.6 (NS) g; Force Inducing Paw Withdrawal (g) Non-lesioned Paw ([3]; 10 mg/kg p.o.): 72.9 (NS) g; Force Inducing Paw Withdrawal (g) Lesioned Paw ([3]; 30 mg/kg p.o.): 15.1 (NS) g; Force Inducing Paw Withdrawal (g) Non-lesioned Paw ([3]; 30 mg/kg p.o.): 83.5 (NS) g; Force Inducing Paw Withdrawal (g) Lesioned Paw ([3]; 100 mg/kg p.o.): 16.2 (NS) g; Force Inducing Paw Withdrawal (g) Non-lesioned Paw ([3]; 100 mg/kg p.o.): 78.1 (NS) g; effect on force inducing paw withdrawal vs vehicle control ([3]; hypersensitivity test, repeated treatment at three different doses, lesioned or non-lesioned paw): no significant effects; induction of hypersensitivity ([3]; repeated administration, tactile and thermal stimulation): does not induce hypersensitivity
